# Patent US20220160488A1, “FUNCTIONALIZED PROSTHETIC INTERFACES FOR THE PREVENTION AND TREATMENT OF DENTAL CONDITIONS” (OPTIMED TECHNOLOGY, INC., priority 2019, published 2022)
# Test system: candida cultures
# Assay: Heat-treated AmB placed on candida cultures, cleared zone
# Type: cell-based, Candida albicans
# Details: heat-treated at various temperatures, examined after 24 h; n=2
# Procedure: FIG. 4 illustrates Candida albicans biomass assay: The antifungal properties of 3D printed PCL-PMMA was examined in a biomass assay a. To assess antifungal effects, 3D printed 1, 5 and 10 layered sample were incubated with C. albicans for 48 h and dry weight of their biofilm biomass was assessed. n=3, *p<0.05, T test. b. Electron microscopy of 1 (left), 5 (middle) and 10 (right) layered AmB containing PCL microspheres incorporated PMMA disc. c. AmB was heat-treated at various temperatures and placed on candida cultures and examined after 24 h for efficacy (left panel). Digital images were captured and the cleared zone was quantitated (right panel) n=2, *p<0.05, T test.
smiles,measurement,value
"C[C@@H]1[C@H](O)[C@@H](C)/C=C/C=C/C=C/C=C/C=C/C=C/C=C/[C@H](O[C@@H]2O[C@H](C)[C@@H](O)[C@H](N)[C@@H]2O)C[C@@H]2O[C@](O)(C[C@@H](O)C[C@@H](O)[C@H](O)CC[C@@H](O)C[C@@H](O)CC(=O)O[C@H]1C)C[C@H](O)[C@H]2C(=O)O [AmB, Amphotericin B]",anti-fungal effects after direct heat treatment,reduced anti-fungal effects
